Assay results taken from ChEMBL document CHEMBL1201862, “PubChem BioAssay data set” (2004).
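Following 48 hours of exposure in 96-well plates, responses at five concentrations were used to interpolate endpoints linearly. The concentration for 50% growth inhibition is given as GI50.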 Calls of active or inactive are those of the source. Rule as the data show it: active = GI50 up to about 1.1 µM and inactive = higher.

Key:
Test in all cases: growth of human tumour cells (NCI), 48 h
[1] = test system: CAKI-1
[2] = test system: XF498
[3] = test system: U-251
[4] = test system: SNB-78
[5] = test system: SF-268
[6] = test system: SK-OV-3
[7] = test system: HOP-18
[8] = test system: UACC-62
[9] = test system: DLD-1
[10] = test system: OVCAR-3
[11] = test system: M19-MEL
[12] = test system: TK-10
[13] = test system: DMS-114
[14] = test system: M14
[15] = test system: 786-0
[16] = test system: MDA-MB-231
[17] = test system: MDA-N
[18] = test system: MDA-MB-435
[19] = test system: DU-145
[20] = test system: PC-3

Measured: GI50

O=C(NC(Cc1ccc(I)cc1)C(=O)O)c1ccc(Cl)cc1 (stereo unspecified)
inactive: [1] > 100 µM | [2] > 80.9 µM | [3] > 100 µM | [4] > 100 µM | [5] > 100 µM | [6] > 100 µM | [7] > 100 µM | [8] 74.8 µM | [9] > 100 µM | [10] > 88.5 µM | [11] > 100 µM

Cc1ccc(C)c(NC(=O)C(=O)C(C(=O)c2ccc3ccccc3c2)C2OC(=O)c3ccccc32)c1 (stereo unspecified)
inactive: [1] 20 µM | [2] 14.5 µM | [12] 19.2 µM | [3] 4.19 µM | [4] 17.9 µM | [5] 3.57 µM | [6] 14.3 µM | [8] 14.6 µM | [9] 23 µM | [13] 7.21 µM | [11] 12.7 µM | [14] 14.6 µM

OC1CCSc2ccccc21 (stereo unspecified)
inactive: [1] > 100 µM | [2] > 100 µM | [3] > 100 µM | [5] > 100 µM | [6] > 100 µM | [7] > 100 µM | [8] > 100 µM | [9] > 100 µM | [13] > 100 µM | [10] > 100 µM | [11] > 100 µM | [14] > 100 µM

O=C(Nc1ccc(Cl)cc1)C(=O)C(C(=O)c1ccccc1-c1ccccc1)C1OC(=O)c2ccccc21 (stereo unspecified)
inactive: [1] 24 µM | [2] 17.9 µM | [12] 21.4 µM | [3] 14 µM | [4] > 100 µM | [5] 21.3 µM | [6] 27.6 µM | [8] 15.9 µM | [9] 29 µM | [13] 16.7 µM | [11] 19.4 µM | [14] 20 µM

CCOC(=O)c1ccc(Nc2nc3cc(C(F)(F)F)ccc3nc2C(=O)OCC)cc1
inactive: [1] 23.5 µM | [15] 25.4 µM | [16] 74.5 µM | [17] > 100 µM | [12] 26.4 µM | [3] 19.7 µM | [5] 97.1 µM | [6] 44.5 µM | [18] > 100 µM | [8] 66.5 µM | [19] > 100 µM | [20] 47.8 µM | [10] 58.6 µM | [14] 34.2 µM

O=S(=O)(O)c1ccc(/N=N\c2ccc(/N=N\c3ccc(/C=C/c4ccc(/N=[N+](/[O-])c5ccc(/C=C/c6ccc(/N=N/c7ccc(/N=N\c8ccc(S(=O)(=O)O)cc8)cc7)cc6S(=O)(=O)O)c(S(=O)(=O)O)c5)cc4S(=O)(=O)O)c(S(=O)(=O)O)c3)cc2)cc1
inactive: [2] > 100 µM | [3] > 100 µM | [5] > 100 µM | [6] > 100 µM | [7] > 100 µM | [8] > 100 µM | [9] > 100 µM | [13] > 100 µM | [10] > 100 µM | [11] > 100 µM
